Assay results reported in US9730928B2, “Trizol-1-OL analogs anti-retroviral latency drugs” (priority 2013, dated 2017).
Entries after “also recorded” stand apart in the source; their conditions may differ.

Assays:
latent HIV-1 [1] = assay: Blocking of viral reactivation by chemical inhibitors of known signaling pathways; format: cell-based; conditions: reactivation stimulus HOAt
Text: The ability of chemical inhibitors of known signaling pathways to block viral reactivation mediated by HOAt was examined (FIG. 4A). […] Activation of JAK kinases lead to the activation of the transcription factors STATs. Specific inhibitors of STAT3 and STAT5 were thus also studied.

latent HIV-1 [2] = assay: Reactivation of latent HIV-1 in latently infected cultured TCM (GFP / p24Gag by flow cytometry); format: cell-based; conditions: for ability to induce viral reactivation compared to the original hit HOBt: panel of 7 derivatives of HOBt (FIG. 2D); for activation of latent HIV-1 (viral reactivation): 72 hours after stimulation, GFP or p24Gag by flow cytometry
Text: A novel primary cell model for the study of HIV-1 latency was adapted so as to be suitable for high-throughput screening (HTS) of new compounds that may reactivate HIV-1 from its latency state (Bosque and Planelles, 2009; Bosque and Planelles, 2010; and patent application: Methods and compositions relating to viral latency, Planelles V, Basque A, U.S. Patent Application 2010/0291067 A1, November 2010).
To facilitate HTS, the nef gene was replaced with that encoding the green fluorescent protein (GFP). It was confirmed that deletion of nef has no effect in latency/reactivation (Bosque and Planelles, 2009) and that using GFP provides a faster, more economical, and equally sensitive, as compared to intracellular p24 detection, readout.
The reactivation experiments were modified to be performed in 96-well plates, utilizing 100,000 cells per well. After reactivation, flow cytometric analysis was performed with Becton Dickinson FACSCanto II with a High Throughput Sampler (HTS) for microtiter plates that is available through the Flow Cytometry Core Facility at the University of Utah. It takes about 30 minutes to analyze a plate, when acquiring 10,000 cells per well. Analysis for each well includes (a) green fluorescence as a direct indicator of viral reactivation; and (b) forward and side scatter as general measures of cell morphology, which is a gross indication of viability.
Latently infected cells were generated using healthy, uninfected DONOR 78 cells that were infected with DHIV virus. Reactivation was monitored by analysis of GFP by Flow Cytometry 72 hours after stimulation. Beads coated with anti-CD3/anti CD28 (CD3/CD28) were used as a positive reactivation stimulus. Reactivation was done in a 96-well plate round bottom. […] This compound is an intermediate en route to synthesis of a cyclic peptide isolated from a tunicate.
HPLC was used to generate 20 fractions based on elution time using a gradient from 10-100% acetonitrile in 0.1% formic acid using a Phenomenex Kinetic C18 50×2.10 mm column ([…], 100 A). The ability of these fractions to activate HIV-1 was tested and compared in parallel with the original hit. […] Further fractionation of C7 was performed and each fraction tested at the concentration indicated in the graph (FIG. 1D). […] Finally, HOBt was tested at different concentrations and analyzed on either Day 3, Day 5, or Day 7.

pSTAT5 [3] = assay: pSTAT5 levels 48 h after IL-2 plus derivatives, flow cytometer; format: cell-based; conditions: with IL-2, 48 h
Method: Cells were treated with IL-2 and several derivatives of HOAt. Levels of pSTAT5 were measured 48 h later by flow cytometer.

latent HIV-1 [4] = assay: Reactivation of latent HIV-1 in absence or presence of γc-cytokines; format: cell-based; conditions: for viral reactivation in the presence of IL-2, IL-4, and IL-15: as worded; for viral reactivation in the presence of IL-2, IL-7 and IL-5: as worded in FIG. 3 legend b37; for viral reactivation in combination with IL-4: combined with IL-4; for viral reactivation in combination with IL-9 and IL-21: combined with IL-9 or IL-21; for viral reactivation in the absence of γc-cytokines: no cytokines, p24Gag 72 hours; for viral reactivation by cytokine alone: cytokine by itself, compared with absence of cytokines
Method: Latently infected cells were generated using healthy, uninfected DONOR 78 cells that were infected with DHIV virus. Reactivation was monitored by analysis of p24Gag by Flow Cytometry 72 hours after stimulation.

STAT5 [5] = assay: STAT5 phosphorylation by flow cytometry in cultured TCM; format: cell-based, human
Method: The levels of STAT5 phosphorylation were analyzed by flow cytometry after incubating cultured TCM with HOAt, IL-2, or a combination of both, during a 24 h period (FIG. 4B).

STAT5 [6] = assay: Nuclear localization of STAT5; format: cell-based, human; conditions: IL-2 alone or in the presence of HOAt
Text: Nuclear translocation of STAT5 is required for its transcriptional activity. […] Histone H3 and alpha Tubulin were used as controls for purity of the fractionation.

SOCS3 = assay: Expression levels of SOCS3, a target gene for STAT5; format: cell-based, human; conditions: IL-2 and HOAt, 24 h post-treatment
Method: STAT5 is a transcriptional activator of multiple genes. To address whether HOAt will increase the transcription of any STAT5 target genes, the expression levels of SOCS3, a target gene for STAT5, were analyzed.

[7] = tested on: memory T cells / cultured TCM; assay: T cell activation (activation markers CD25 and CD69); format: cell-based, human; conditions: for increase of CD25 levels (mean intensity of fluorescence): maximum concentration used (compound), TCR engagement (αCD3/αCD28)
Text: (§1) Memory cells were generated from 3 different donors and treated with either HOBt or anti-CD3/CD28 to analyze the effect of HOBt on T cell activation (FIG. 6A). Analysis of T cell activation was done by analyzing the upregulation of the activation markers CD25 and CD69 three days post activation. […] Analysis of T cell differentiation was done by analyzing the levels of CCR7 and CD27 three days post activation (FIG. 6B).
(§2) In order to determine whether HOAt is inducing T cell proliferation, culter TCM were incubated with HOAt in a dose dependent manner. […] It has been shown previously that both cultured TCM and ex vivo TCM express low levels of CD25 (Bosque et al. 2011). This level is increased by 37 times after TCR engagement with αCD3/αCD28, measured as mean intensity of fluorescence (values between parenthesis, FIG. 6D).
CD69 upregulation is concomitant with T cell activation.

cultured TCM = assay: T cell proliferation of cultured TCM; format: cell-based, human; conditions: dose dependent incubation
Method: as §2

latent HIV-1 [8] = assay: Viral reactivation mediated by other stimuli (PMA, ionomycin, SAHA); format: cell-based; conditions: HOAt added to each of three stimuli
latent HIV-1 [9] = assay: Reactivation of latent HIV-1 in cells isolated from aviremic HIV-1 patients; format: cell-based; conditions: cells of two patients suppressed with antiretroviral; versus DMSO control
Text: Briefly, cells for two patients suppressed with antiretroviral were isolated and treated with either DMSO (Control), HOAt or the mitogen PHA.

pSTAT5 [10] = assay: pSTAT5 immunoprecipitation and western blot; format: cell-based; conditions: 30 min pretreatment, then IL-2 for 30 min
Method: STAT5 was immunoprecipitated with antibodies specific for the phosphorylated protein and western blot was performed against pSTAT5.

memory T cells = assay: T cell differentiation (CCR7 and CD27 levels); format: cell-based, human; conditions: three days post activation
Text: as §1

Cc1ccc2nc(NCCN)c3ncc(C)n3c2c1 [BMS345541]
effect on viral reactivation induced by HOAt (latent HIV-1 [1]): did not have a significant effect

O=c1c2ccccc2nnn1O [HO-DhBt, 3-hydroxybenzo[d][1,2,3]triazin-4-(3H)-one]
ability to induce viral reactivation compared to the original hit HOBt (latent HIV-1 [2]): able to induce viral reactivation in a dose dependent manner and with increased efficiency; also recorded: increased ability to induce viral reactivation in a dose dependent manner | maintenance of pSTAT5 levels (pSTAT5 [3]): maintain pSTAT5 levels in a dose dependent manner

On1nnc2cccnc21 [HOAt, 1-hydroxy-7-azabenzotriazole]
activation of latent HIV-1 (viral reactivation) (latent HIV-1 [2]): able to reactivate HIV-1 latency; also recorded: activates HIV-1 latent cells; also recorded: activate latent HIV-1; also recorded: reactivate HIV-1 latency in a dose dependent manner | ability to induce viral reactivation compared to the original hit HOBt (latent HIV-1 [2]): more potent analog than the original hit; also recorded: increased activity compared to HOBt | viral reactivation in the presence of IL-2, IL-4, and IL-15 (latent HIV-1 [4]): dramatically increase viral reactivation | viral reactivation in the presence of IL-2, IL-7 and IL-5 (latent HIV-1 [4]): increase viral reactivation | viral reactivation in combination with IL-4 (latent HIV-1 [4]): induced significant viral reactivation; also recorded: did induce significant viral reactivation | viral reactivation in combination with IL-9 and IL-21 (latent HIV-1 [4]): did not have an effect in viral reactivation | viral reactivation in the absence of γc-cytokines (latent HIV-1 [4]): significantly reactivate HIV-1 latency | STAT5 phosphorylation, agent alone over untreated cells (STAT5 [5]; HOAt alone): able to induce an increase in STAT5 phosphorylation over untreated cells | STAT5 phosphorylation, combination with IL-2 (STAT5 [5]; IL-2 and HOAt): drastic increase in STAT5 phosphorylation | STAT5 phosphorylation after 24 hrs, combination with IL-2 (STAT5 [5]; IL-2 and HOAt, 24 hrs): do not significantly decrease | pSTAT5 and STAT5 levels in the nucleus (STAT5 [6]): increased in the nucleus; also recorded: increases the nuclear localization of STAT5 | levels (transcription) of SOCS3 (SOCS3): increase the levels of SOCS3; also recorded: increases the transcription of SOC3S | levels of T cell activation (CD69) compared with αCD3/αCD28 ([7]; CD69 upregulation): slightly increases the levels of T cell activation | increase of CD25 levels (mean intensity of fluorescence) [7]: 1.4 times | T cell proliferation (cultured TCM): only induces some degree of cell proliferation at the higher concentration tested | viral reactivation mediated by PMA, ionomycin and SAHA (latent HIV-1 [8]): able to increase viral reactivation mediated by these three stimuli; also recorded: increases viral reactivation | regrowth of latent viruses in patient cells in vitro (latent HIV-1 [9]): can induce regrowth of latent viruses in both patients | levels of pSTAT5 in the inputs (pSTAT5 [10]): increases the levels of pSTAT5 | maintenance of pSTAT5 levels (pSTAT5 [3]): maintain pSTAT5 levels in a dose dependent manner

On1nnc2ccccc21 [HOBt, 1-hydroxybenzotriazole]
activation of latent HIV-1 (viral reactivation) (latent HIV-1 [2]): activate latent HIV-1 in a dose-dependent manner; also recorded: able to reactivate HIV-1 latency; also recorded: reactivate HIV-1 latency in a dose dependent manner; also recorded: activates HIV-1 latent cells | kinetics of HIV-1 latency reactivation compared with anti-CD3/CD28 (latent HIV-1 [2]; analyzed on Day 3, Day 5, or Day 7): slower kinetics | viral reactivation in the presence of IL-2, IL-4, and IL-15 (latent HIV-1 [4]): dramatically increase viral reactivation | viral reactivation in the presence of IL-2, IL-7 and IL-5 (latent HIV-1 [4]): increase viral reactivation | viral reactivation in combination with IL-4 (latent HIV-1 [4]): induced significant viral reactivation; also recorded: did induce significant viral reactivation | viral reactivation in combination with IL-9 and IL-21 (latent HIV-1 [4]): did not have an effect in viral reactivation | viral reactivation in the absence of γc-cytokines (latent HIV-1 [4]): significantly reactivate HIV-1 latency | increase of CD25 levels (mean intensity of fluorescence) [7]: 1.4 times | general T cell activation (upregulation of CD25 and CD69) ([7]; three days post activation, 3 donors): does not induce general T cell activation | T cell differentiation (loss of CCR7 and CD27 expression) (memory T cells): does not induce T cell differentiation | T cell proliferation (cultured TCM): only induces some degree of T cell proliferation at the higher concentration tested | maintenance of pSTAT5 levels (pSTAT5 [3]): maintain pSTAT5 levels in a dose dependent manner

O=C(N/N=C/c1coc2ccccc2c1=O)c1cccnc1 [STAT5 inhibitor]
effect on viral reactivation induced by HOAt (latent HIV-1 [1]): completely abrogates viral reactivation; also recorded: completely prevent activation of latent HIV-1 by HOAt

IL-9: γc-cytokine
viral reactivation by cytokine alone (latent HIV-1 [4]): did not have an effect in viral reactivation; also recorded: no effect

IL-21: γc-cytokine
viral reactivation by cytokine alone (latent HIV-1 [4]): did not have an effect in viral reactivation; also recorded: no effect

B1: IL-7: γc-cytokine (protein, UniProt P13232 26-177, looked up)
Interleukin-7: DCDIEGKDGKQYESVLMVSIDQLLDSMKEIGSNCLNNEFNFFKRHICDANKEGMFLFRAARKLRQFLKMNSTGDFDLHLLKVSEGTTILLNCTGQVKGRKPAALGEAQPTKSLEENKSLKEQKKLNDLCFLKRLLQEIKTCWNKILMGTKEH
viral reactivation by cytokine alone (latent HIV-1 [4]): trend towards increasing viral reactivation

B2: IL-4: γc-cytokine (protein, UniProt P05112 25-153, looked up)
Interleukin-4: HKCDITLQEIIKTLNSLTEQKTLCTELTVTDIFAASKNTTEKETFCRAATVLRQFYSHHEKDTRCLGATAQQFHRHKQLIRFLKRLDRNLWGLAGLNSCPVKEANQSTLENFLERLKTIMREKYSKCSS
viral reactivation by cytokine alone (latent HIV-1 [4]): not able to induce significant viral reactivation by itself; also recorded: did not induce viral reactivation by itself
